Measured values as given in US8188073B2, “Benzoxazines and related nitrogen-containing heterobicyclic compounds useful as mineralocorticoid receptor modulating agents” (Mitsubishi Tanabe Pharma Corporation, priority 2006, dated 2012).
pIC50, pKi: −log10 of the molar value.

Tests used:
Aldosterone Receptor = biological target: T1, Aldosterone Receptor (Rattus norvegicus, UniProt P22199); assay: Aldosterone Receptor Binding Assay (Experiment 1; kidney cytosol fraction, [3H]aldosterone); set-up: species or system Sprague-Dawley male rats; details: [3H]aldosterone ca. 2 nM, 4° C. overnight, Ki by Cheng and Prusoff's equation
T1 construct: centrifuged at 100,000×g for 1 hour to give a supernatant as a kidney cytosol fraction; from tissue; host or cells: kidney cytosol of adrenalectomised Sprague-Dawley male rats
T1 sequence (P22199 1-981): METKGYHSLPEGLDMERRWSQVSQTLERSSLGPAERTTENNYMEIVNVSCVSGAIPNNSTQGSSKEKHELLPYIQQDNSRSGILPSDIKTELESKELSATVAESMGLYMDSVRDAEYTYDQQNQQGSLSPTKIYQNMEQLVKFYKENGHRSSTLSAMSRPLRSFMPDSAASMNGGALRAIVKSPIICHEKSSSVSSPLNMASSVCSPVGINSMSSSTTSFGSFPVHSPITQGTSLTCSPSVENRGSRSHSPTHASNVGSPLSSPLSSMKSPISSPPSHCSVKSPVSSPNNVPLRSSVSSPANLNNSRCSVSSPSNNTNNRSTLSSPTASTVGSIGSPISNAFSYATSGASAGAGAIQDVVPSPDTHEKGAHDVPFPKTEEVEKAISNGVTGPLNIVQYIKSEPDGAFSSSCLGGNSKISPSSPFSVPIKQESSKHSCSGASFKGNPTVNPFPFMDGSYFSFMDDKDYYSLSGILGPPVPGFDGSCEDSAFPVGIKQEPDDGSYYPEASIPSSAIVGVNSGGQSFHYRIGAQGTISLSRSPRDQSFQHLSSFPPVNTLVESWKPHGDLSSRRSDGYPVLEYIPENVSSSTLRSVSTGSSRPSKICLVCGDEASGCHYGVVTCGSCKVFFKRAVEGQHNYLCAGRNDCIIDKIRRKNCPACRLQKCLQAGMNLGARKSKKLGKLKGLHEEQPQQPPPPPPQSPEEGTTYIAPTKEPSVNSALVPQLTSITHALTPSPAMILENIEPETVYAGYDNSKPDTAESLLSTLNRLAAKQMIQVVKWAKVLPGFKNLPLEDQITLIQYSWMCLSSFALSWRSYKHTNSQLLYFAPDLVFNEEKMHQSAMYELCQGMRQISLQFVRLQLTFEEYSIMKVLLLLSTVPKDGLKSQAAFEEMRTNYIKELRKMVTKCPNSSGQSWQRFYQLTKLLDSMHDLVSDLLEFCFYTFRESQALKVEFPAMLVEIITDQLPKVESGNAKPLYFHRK
Description: Experiment 1 [Aldosterone Receptor Binding Assay]
(1) Preparation of Kidney Cytosol Fraction:
Kidneys derived from post-adrenalectomy Sprague-Dawley male rats (7 weeks old) were homogenized in the following buffer solution and the homogenate was centrifuged at 100,000×g for 1 hour to give a supernatant as a kidney cytosol fraction (protein concentration: 15 mg/mL) for the present biding assay.
Composition of Buffer solution: 50 mM Tris-HCl (pH 7.5), 250 mM Sucrose, 50 mM Potassium chloride, 3 mM Magnesium chloride, 20 mM Sodium molybdate and 1 mM Mercaptoethanol
A mixture of 5 μL of a solution of each test compound in dimethylsulfoxide, 200 μL of kidney cytosol fraction, 50 μL of physiological saline (or 50 μL of unlabeled aldosterone solution (final concentration: 1 μM) and (50 μL of [^3H]aldosterone solution (ca. 2 nM) was incubated in a test tube at 4° C. overnight. Thereto was added 100 μL of dextrane-coated charcoal/10 mM Tris-HCl buffer and the mixture was incubated at 4° C. for 30 minutes. The reaction mixture was centrifuged at 3000 rpm for 10 minutes and to the supernatant (150 μL) was added 5 mL of a scintillator (Clearsol II, Nakarai Tesque). The radioactivity was measured by a liquid scintilation counter (TRI CARB 2200CA, Packard). […] Moreover, the dissociation constant (Ki) of each test compound was calculated on Cheng and Prusoff's equation (Ki=IC50/(1+[L]/Kd), wherein [L] is [^3H]aldosterone concentration and Kd is the affinity constant of aldosterone).

[1] = biological target: T2, mineralocorticoid receptors (MR) (Rattus norvegicus, UniProt P22199); assay: binding assay using rat MR and 3H-aldosterone; details: for pIC50: rat MR and 3H-aldosterone
T2 construct: mineralocorticoid receptors (MR) derived form rat kidney; from tissue; host or cells: rat kidney
T2 sequence (P22199 1-981): T1 sequence (P22199 1-981)
Description: (§1) Each biding assay was conducted in a similar manner as the procedure described in The Journal of Pharmacology and Experimental Therapeutics, 1987; 240:p. 650-656.
For example, in a binding assay using rat MR and ^3H-aldosterone, which was conducted in accordance with a manner as described in The Journal of Pharmacology and Experimental Therapeutics, 1987; 240: p. […] Therefore, the compound [I] of the present invention is useful as a medicament for prevention or treatment of various diseases associated with the receptor and/or aldosterone, such as cardiovascular diseases including hypertension and heart failure.

[2] = biological target: T3, glucocorticoid receptors (GR) (Rattus norvegicus, UniProt P06536); assay: binding assay using glucocorticoid receptors derived from rat liver and 3H-dexamethazone; details: GR derived from rat liver
T3 construct: glucocorticoid receptors (GR) derived form rat liver; from tissue; host or cells: rat liver
T3 sequence (P06536 1-795): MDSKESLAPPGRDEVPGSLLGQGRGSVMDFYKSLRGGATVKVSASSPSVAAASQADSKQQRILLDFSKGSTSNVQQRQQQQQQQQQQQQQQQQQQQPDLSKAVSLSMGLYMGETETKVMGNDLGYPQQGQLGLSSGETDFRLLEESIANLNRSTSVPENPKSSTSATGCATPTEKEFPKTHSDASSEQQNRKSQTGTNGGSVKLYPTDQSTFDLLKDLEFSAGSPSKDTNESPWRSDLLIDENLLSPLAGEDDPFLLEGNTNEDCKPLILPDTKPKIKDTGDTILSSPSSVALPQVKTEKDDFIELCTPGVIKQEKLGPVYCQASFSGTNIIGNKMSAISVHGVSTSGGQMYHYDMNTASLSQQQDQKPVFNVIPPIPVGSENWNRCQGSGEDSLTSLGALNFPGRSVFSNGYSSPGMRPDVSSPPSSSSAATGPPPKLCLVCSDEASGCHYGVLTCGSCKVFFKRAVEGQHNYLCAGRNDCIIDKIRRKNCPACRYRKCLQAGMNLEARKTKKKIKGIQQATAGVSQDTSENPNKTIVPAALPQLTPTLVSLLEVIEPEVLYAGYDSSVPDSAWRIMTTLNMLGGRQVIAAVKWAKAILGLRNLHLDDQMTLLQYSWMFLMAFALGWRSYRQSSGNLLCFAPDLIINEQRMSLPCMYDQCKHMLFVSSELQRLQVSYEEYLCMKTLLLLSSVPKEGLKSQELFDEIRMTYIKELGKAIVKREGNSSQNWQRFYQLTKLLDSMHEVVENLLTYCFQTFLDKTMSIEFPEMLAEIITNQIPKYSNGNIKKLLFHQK
Description: as §1

androgen receptors (AR) = biological target: T4, androgen receptors (AR) (Rattus norvegicus, UniProt P15207); assay: binding assay using androgen receptors derived from rat prostate and 3H-methyltrienorone; details: AR derived from rat prostate
T4 construct: androgen receptors (AR) derived form rat prostate; from tissue; host or cells: rat prostate
T4 sequence (P15207 1-902): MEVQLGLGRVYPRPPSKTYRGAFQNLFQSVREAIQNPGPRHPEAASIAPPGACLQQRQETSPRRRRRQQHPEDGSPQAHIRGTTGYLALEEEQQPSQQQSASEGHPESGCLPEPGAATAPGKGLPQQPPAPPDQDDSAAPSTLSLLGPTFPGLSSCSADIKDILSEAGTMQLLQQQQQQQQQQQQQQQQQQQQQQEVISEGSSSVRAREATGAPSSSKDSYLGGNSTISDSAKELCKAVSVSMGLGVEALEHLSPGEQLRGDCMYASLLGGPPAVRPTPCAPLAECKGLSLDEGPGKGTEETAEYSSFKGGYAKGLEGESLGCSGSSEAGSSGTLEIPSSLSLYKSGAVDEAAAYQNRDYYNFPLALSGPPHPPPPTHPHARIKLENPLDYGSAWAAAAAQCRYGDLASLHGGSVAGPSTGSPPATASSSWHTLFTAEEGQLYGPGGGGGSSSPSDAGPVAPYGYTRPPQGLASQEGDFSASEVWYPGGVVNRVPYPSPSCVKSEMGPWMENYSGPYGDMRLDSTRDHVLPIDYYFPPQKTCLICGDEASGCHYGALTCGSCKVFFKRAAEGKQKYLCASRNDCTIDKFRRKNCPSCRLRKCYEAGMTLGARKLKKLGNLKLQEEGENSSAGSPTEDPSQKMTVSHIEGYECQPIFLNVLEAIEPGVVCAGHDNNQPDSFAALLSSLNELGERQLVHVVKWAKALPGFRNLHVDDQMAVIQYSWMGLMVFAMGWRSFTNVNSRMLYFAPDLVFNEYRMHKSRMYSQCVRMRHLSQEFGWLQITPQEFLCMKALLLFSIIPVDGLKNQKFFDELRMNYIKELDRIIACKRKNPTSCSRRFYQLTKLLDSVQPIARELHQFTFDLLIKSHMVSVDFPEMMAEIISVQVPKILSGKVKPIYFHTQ
Description: as §1

SMILES | pKi (Aldosterone Receptor) | further results
COc1cccc(N2C(=O)C(C)(C)Oc3cc(NS(C)(=O)=O)ccc32)c1 [Example 53] | > 6.30 | 
CC1(C)Oc2cc(NS(C)(=O)=O)ccc2N(c2ccc(F)cc2)C1=O [Example 9, N-[4-(4-fluorophenyl)-2,2-dimethyl-3-oxo-3,4-dihydro-2H-1,4-benzoxazin-7-yl]methanesulfonamide] | > 6.30 | 
CC1(C)Oc2cc([N+](=O)[O-])c(Cl)cc2N(c2ccc(F)cc2)C1=O [6-chloro-4-(4-fluorophenyl)-2,2-dimethyl-7-nitro-2H-1,4-benzoxizin-3(4H)-one] |  | pKi ([1]; MR derived from rat kidney): > 5.00
CC1(C)Oc2cc(NS(C)(=O)=O)ccc2N(c2ccc(F)c(F)c2)C1=O [Example 10] | > 6.30 | 
O=C1C(c2ccccc2)Oc2cc([N+](=O)[O-])ccc2N1c1ccc(F)cc1 (stereo not drawn) [4-(4-fluorophenyl)-7-nitro-2-phenyl-2H-1,4-benzoxizin-3(4H)-one] |  | pKi [2]: > 5.00
CC1(C)Oc2cc(NS(C)(=O)=O)ccc2N(Cc2ccccc2)C1=O [Example 19] | > 6.30 | 
CS(=O)(=O)Nc1ccc2c(c1)OC(c1ccccc1)C(=O)N2c1ccc(Cl)cc1 (stereo not drawn) [Example 6] | > 6.30 | 
Cc1cc(N2C(=O)C(C)(C)Oc3cc([N+](=O)[O-])ccc32)ccc1F [4-(4-fluoro-3-methylphenyl)-2,2-dimethyl-7-nitro-2H-1,4-benzoxizin-3 (4H)-one] |  | pKi [2]: > 5.00
CC1(C)Oc2cc(NS(C)(=O)=O)ccc2N(c2ccc(F)cc2)C1=S [Example 46, N-[4-(4-fluorophenyl)-2,2-dimethyl-3-thioxo-3,4-dihydro-2H-1,4-benzoxazin-7-yl]methanesulfonamide] | > 6.30 | 
CC1(C)Oc2cc(NS(C)(=O)=O)ccc2N(c2ccc(Cl)cc2)C1=O [Example 11] | > 6.30 | 
CC1(C)Nc2cc(NS(C)(=O)=O)ccc2N(c2ccc(F)cc2)C1=O [Example 45, N-[1-(4-fluorophenyl)-3,3-dimethyl-2-oxo-1,2,3,4-tetrahydroquinoxalin-6-yl]methanesulfonamide] | > 6.30 | 
Cc1cc(F)ccc1N1C(=O)C(C)(C)Oc2cc(NS(C)(=O)=O)ccc21 [Example 50] | > 6.30 | 
CC1(C)Oc2cc(NS(C)(=O)=O)ccc2N(c2ccccc2)C1=O [N-(2,2-dimethyl-3-oxo-4-phenyl-3,4-dihydro-2H-1,4-benzoxazin-7-yl)methanesulfonamide] |  | pIC50 [1]: > 5.00
CS(=O)(=O)Nc1ccc2c(c1)OC1(CCC1)C(=O)N2c1ccc(F)cc1 [Example 37] | 6.00 to 6.30 | 
CC1(C)Oc2cc(N)ccc2N(c2ccc(F)c(F)c2)C1=O [7-amino-4-(3,4-difluorophenyl)-2,2-dimethyl-2H-1,4-benzoxizin-3(4H)-one] |  | pKi (androgen receptors (AR)): > 5.00
CS(=O)(=O)Nc1ccc2c(c1)OC(c1ccccc1)C(=O)N2c1ccccc1 (stereo not drawn) [N-(3-oxo-2,4-diphenyl-3,4-dihydro-2H-1,4-benzoxazin-7-yl)methane sulfonamide] |  | pIC50 [1]: > 5.00
Cc1ccc(N2C(=O)C(C)(C)Oc3cc([N+](=O)[O-])ccc32)cc1C(F)(F)F |  | pKi [2]: > 5.00

More lines, main results first:

pKi (Aldosterone Receptor) | SMILES | further results
> 6.30 | CC1(C)Oc2cc(NS(C)(=O)=O)ccc2N(c2ccncc2)C1=O [Example 64] | 
6.00 to 6.30 | CS(=O)(=O)Nc1ccc2c(c1)OCC(=O)N2c1ccc(F)c(Cl)c1 [Example 67] | 
> 6.30 | COc1cc(N2C(=O)C(C)(C)Oc3cc(NS(C)(=O)=O)ccc32)ccc1F [Example 55, N-[4-(4-Fluoro-3-methoxyphenyl)-2,2-dimethyl-3-oxo-3,4-dihydro-2H-1,4-benzoxazin-7-yl]methanesulfonamide] | 
> 6.30 | COc1cc2c(cc1NS(C)(=O)=O)OC(C)(C)C(=O)N2c1ccc(F)cc1 [Example 101, N-[4-(4-Fluorophenyl)-6-methoxy-2,2-dimethyl-3-oxo-3,4-dihydro-2H-1,4-benzoxazin-7-yl]methanesulfonamide] | 
